# Measured values as given in patent publication US10907168B2, “Jasmonic acid pathway activator” (MEDICAGO INC., priority 2015, dated 2021).
# Columns and labels:
# A. tumefaciens = assay: Bacterial counts (CFU) in agroinfiltrated leaves; format: in vivo, Agrobacterium tumefaciens; conditions: control and treated leaves; after four or six days post-infiltration
# Excerpt: Two gene vectors were used for the agroinfiltration assays: an engineered pcambia2300 vector encoding the light and heavy chains of C5-1 fused to an N-terminal signal peptide sequence for cellular secretion (see Goulet et al., 2012 for details on gene construct); and the original (“empty”) pcambia2300 binary vector (CAMBIA, Canberra, Australia) as a control for agroinfection. The two binary vectors were electroporated into A. tumefaciens strain LBA4404 and the cultures were maintained in Luria-Bertani (LB) medium supplemented with 50 μg/ml kanamycin and 50 μg/ml rifampicin. For infiltration, bacteria were grown to stable phase at 28° C. to an OD600 of 1.0 and collected by centrifugation at 2,000 g. The bacterial pellets were resuspended in 10 mM 2-[N-morpholino] ethanesulfonic acid] (MES) buffer, pH 5.8, containing 100 μM acetosyringone and 10 mM MgCl2. Leaf infiltration was performed using a needle-less syringe as described earlier (D'Aoust et al., 2009), after mixing the C5-1 antibody (or empty vector) agrobacterial suspension with an equal volume of bacterial suspension carrying a binary vector for the protein silencing suppressor p19 (Voinnet et al., 2003). […] Bacterial loads in leaves were determined by the counting of CFU on LB agar plates coated with bacteria recovered at different moments from the third main stem leaf. […]
# [1] = system: trypsin-like S1 Ser proteases; assay: Protease assay in leaf crude extracts, Z-Arg-MCA substrate; format: in vivo, Nicotiana benthamiana; conditions: 0.5 and 1 mM doses, seven days post-treatment
# Method: (§1) Forty-two day-old N. benthamiana plants grown in greenhouse were used for the experiments. Each plant was sprayed evenly with 50 ml of 0.5 mM, 1 mM or 2 mM MeJA in water containing 0.1% (v/v) Triton X-100 (Sigma-Aldrich, Mississauga ON, Canada), or with 50 ml of 1 mM arachidonic acid (Girard et al., 2007) in the same solvent, and transferred for seven days in a Conviron growth chamber (Conviron, Winnipeg MB, Canada). Plants sprayed with 50 ml of 0.1% (v/v) Triton X-100 in water were used in parallel as negative controls to avoid confounding effects due to experimental conditions. […]
# (§2) Whole leaf proteins were extracted from three 1-cm^2 leaf discs in 400 μl of ice-cold 50 mM Tris-HCl, pH 7.5, containing 150 mM NaCl, by disrupting the leaf samples with tungsten carbide beads (Qiagen, Mississauga ON, Canada) in a Mini-Beadbeater apparatus (BioSpec, Bartlesville Okla., USA). […] RuBisCO small subunit was detected using polyclonal IgG raised in rabbit against a synthetic small subunit peptide (Agrisera, Vännäs, Sweden) and alkaline phosphatase-conjugated goat anti-rabbit IgG as secondary antibodies (Sigma-Aldrich). RuBisCO large subunit was detected using polyclonal IgG raised in hen against a synthetic large subunit peptide (Agrisera) and alkaline phosphatase-conjugated goat anti-chicken IgG as secondary antibodies (Sigma-Aldrich). […]
# [2] = system: cathepsin L-like C1A Cys proteases; assay: Protease assay in leaf crude extracts, Z-Phe-Arg-MCA substrate; format: in vivo, Nicotiana benthamiana; conditions: three tested doses (0.5, 1, 2 mM), seven days post-treatment, ANOVA P>0.05
# Method: as §1, §2
structure (smiles),measurement,setting,value
"CC/C=C\C[C@H]1C(=O)CC[C@@H]1CC(=O)OC [MeJA, methyl jasmonate]",bacterial counts,A. tumefaciens,less than a million
same,trypsin-like activity,[1],minimal or no increase in activity
same,cathepsin L-like activity,[2],no impact
